# How the values were obtained:
# human skin lipids = experiment: Ex vivo tape strip method: inhibition of UVR-induced lipid peroxidation (LOOH); assay type: biochemical; details: for % Inhibition of LOOH: tape strips irradiated 10 joules/cm^2 UVR, vs placebo lotion
# Source text: To determine if antioxidants (Aox) maintain their effectiveness on skin in the presence of UVR, we devised a novel and more relevant model that utilizes human skin lipids as substrates for UVR-induced peroxidation. Lipids removed from skin on broad pieces of tape serve as the substrates for subsequent exposure to UVR. By applying a standard lotion with or without Aox to skin prior to tape-stripping, skin lipids can be collected on tape strips in the presence or absence of Aox that essentially maintains the same proximity that lipids and Aox had on skin. Following UVR exposure, the extent to which the presence of Aox protect lipids against peroxidation from ROS can be measured relative to lipids in the absence of antioxidants.
# Human volunteers were recruited for the test and asked not to apply any products to their arms for at least two days before the test Prior to any product treatments, inner aspects of subjects' left and right forearms were wiped with a Kimwipe™ moistened with isopropanol to remove any residues that might be on the surface of the skin. Arms were wiped only once applying gentle pressure and then allowed to dry at least 10 minutes before proceeding. A template (90 mm×50 mm) was positioned on each inner forearm such that two areas could be clearly delineated. Using a superfine tip Sharpie™ pen, a mark was placed at each corner of the template to outline each application site, with two sites delineated per forearm. Using a fingercot, either placebo or antioxidant lotion was applied (100 mg) to a delineated site on a forearm. Care was taken to insure that products were applied evenly within the entire application area. After application, sites were allowed to air-dry for 30 minutes during which subjects were instructed not to allow any clothing to come into contact with test areas.
# After lotions dried for 30 minutes, each site was tape-stripped using a 4.0 inch piece of Scotch® Brand No. 800 Prescription Label tape (1.5 inches wide). […] The piece of tape was positioned over a site and then using a finger the tape was gently pressed onto the skin to make good contact. […]
# Each tape extract was assayed for total LOOH content using a Lipid Hydroperoxide Assay Kit (Kamiya Biomedical Company, Thousand Oaks, Calif.) following manufacturer's directions. Lipid hydroperoxides were then quantitated by measuring methylene blue formation at 675 nm using a spectrophotometer. Standard curves were prepared using cumene hydroperoxide and were linear over the range of LOOH detected in these experiments. […]
# The extent to which antioxidant (Aox) or placebo lotions inhibited UVR-induced lipid hydroperoxide (LOOH) formation was calculated by inserting the values of LOOH determined from the four application sites on each volunteer into the following equation: […]
# [1] = DPPH (α,α-diphenyl-β-picrylhydrazyl) free radical test; assay type: biochemical; details: 20 min, 30° C., absorbance 517 nm
# Procedure: DPPH is a stable free radical that when dissolved in solution forms an intense purple color. […] The extent to which the color fades can be easily measured and used to rank the relative effectiveness of different materials purported to have antioxidant properties.
# Measurements were recorded for antioxidant raw materials in simple methanol solutions. Samples were prepared by dissolving antioxidants at various concentrations in methanol. After sample preparation, 125 μl of the sample or pure methanol as a control were pipetted into sample test tubes followed by 2 ml of methanol and vortexed. Then 2 ml of DPPH stock solution (0.25 mM in methanol) was added to each tube (giving a total volume of 4.125 ml for each sample) and vortexed. Immediately after addition of DPPH, test tubes were covered and placed into a 30° C. water bath for 20 minutes. After the 20 minute incubation, the absorbance of each sample was recorded at 517 nm using a Perkin Elmer Lambda 40 spectrophotometer. All samples were prepared in triplicate and their mean absorbance values were used to express the efficacy of antioxidants at various concentrations in terms of antioxidant reducing units (ARU) by using the following equation: ARU=(Absorbance Methanol Control−Absorbance sample)×10 ARU values range in magnitude from 0 for “no” efficacy to about 15 for raw materials that have high antioxidant efficacy.
# [2] = test system: UV-induced ROS in EpiDerm™ Skin Model (human-derived epidermal keratinocytes); experiment: Two photon fluorescence microscopy on EpiDerm Skin Model (UV-induced ROS down to the basal layer); assay type: cell-based; details: result in words (FIG. 4)
# Procedure: Two photon fluorescence microscopy was then conducted on a formulation containing Vitamin E and Emblica to determine ability to inhibit formation of ROS. The methods used were similar to those as described above, using confocal microscopy to visualize cells at different depths within intact pieces of skin and then fluorescence to quantify the extent of ROS formation. In the present experiment, however, instead of using human breast skin, the skin used was the EpiDerm™ Skin Model (MatTek Corporation, Mass. USA), which consists of normal, human-derived epidermal keratinocytes which have been cultured to form a multilayered, highly differentiated model of the human epidermis. […]
# Prior to UVR exposure, pieces of EpiDerm™ skin were treated with dihydrorhodamine, which partitions throughout the aqueous and lipid regions of the tissue. […] The fluorescence is subsequently detected and quantified to provide an indication of the level of UV-induced ROS formed in deeper layers of the skin. By applying antioxidants topically before irradiation ROS formation can be measured and compared to the ROS formed after a placebo lotion without antioxidants was applied to the skin. In this way, the efficacy of antioxidants to neutralize ROS within deeper layers of the skin can be measured and their relative efficiencies established. […]
smiles,measurement,setting,value
"Cc1c(C)c2c(c(C)c1O)CCC(C)(CCCC(C)CCCC(C)CCCC(C)C)O2 (stereo not drawn) [Vitamin E, dl alpha tocopherol]",% Inhibition of LOOH,human skin lipids; 0.05% in lotion,−3.40%
same,% Inhibition of LOOH,human skin lipids; 0.10% in lotion,28.4%
same,% Inhibition of LOOH,human skin lipids; 0.25% in lotion,61.0%
same,protection of skin lipids against UVR-induced peroxidation (FIG. 1),"human skin lipids; result in words, FIG. 1",protects skin lipids in a dose dependant manner
same,ARU (antioxidant reducing units),[1]; level 0.5% in methanol,6.5 ARU
C[N+](C)(C)[C@@H](Cc1c[nH]c(=S)[nH]1)C(=O)[O-] [Ergothiotaine],ARU (antioxidant reducing units),[1]; level 0.1% in methanol,0.0 ARU
CC(=O)N[C@@H](CS)C(=O)O [n-Acetyl cysteine],ARU (antioxidant reducing units),[1]; level 0.1% in methanol,9.9 ARU
"CC1(C)CC[C@]2(C(=O)O)CC[C@]3(C)C(=CC[C@@H]4[C@@]5(C)C[C@@H](O)[C@H](O)[C@@](C)(CO)[C@@H]5CC[C@]43C)[C@@H]2C1 [Arjunolic acid (1%), Arjunolic acid]",ARU (antioxidant reducing units),[1]; level 1.0% in methanol,0.4 ARU
CCCCC(CC)COC(=O)C(=Cc1cc(OC)c(O)c(OC)c1)C(=O)OCC(CC)CCCC (stereo not shown) [Diethylhexyl syringylidene malonate],antioxidant or pro-oxidant behaviour within skin exposed to UVR,[2],maintains its antioxidant capability
same,ARU (antioxidant reducing units),[1]; level 1.0% in methanol,5.7 ARU

# From patent US9096882B2, “Method of selecting antioxidants for use in topically applied compositions” (MSD Consumer Care, Inc., priority 2008, dated 2015)
